“Also recorded” adds a separate entry of the source.
Tests used:
SV-MES mesangial cells = assay: AAR activation in SV-MES mesangial (fibroblastic) cells; format: cell-based; conditions: 2 hours
Experimental: FIG. 11. HF induces a stress response in fibroblasts. SV-MES mesangial cells were stimulated for 2 hours with DMSO, 20 nM MAZ1310, or 20 nM HF. Whole cell lysates were analyzed for expression of phosphorylated or total eIF2α by western blotting.
Duplicate cell samples are shown. […] Activated GCN2 phosphorylates eif2alpha at Ser 51; therefore, this is an expected downstream outcome of AAR activation.

[1] = format: in vitro ADME; conditions: mouse, 2 h, 20 nM
Experimental: MEFs were incubated with the indicated concentration of HF in the presence or absence of 2 mM proline for 2 hours and then lysed. Lysates were then tested for HF levels in comparison to a standard curve using known concentrations of HF with an anti-HF antibody based ELISA assay (see Example 9, “Materials and Methods”). Error bars reflect standard deviation of triplicate determinations. Similar results were obtained in three separate experiments.
Polyclonal anti-HF antibody was raised by immunizing rabbits with KLH coupled to an HF derivative (MAZ1356) containing a linker attached to the quinazolinone and terminated by a primary amino group. Crude antibody was affinity purified using MAZ1356 linked to NHS-agarose. For the ELISA assay, MAZ1356 was coupled to 96-well Reacti-bind Plates (Pierce). After binding, plates were blocked with 10% goat serum in PBS/0.2% Tween-20 (PBST). […] Captured antibody was quantitated using TMB based colorimetric detection (Pierce), and a standard curve for HF concentration fitted from the colorimetric data. […] To determine HF concentration in cells, 8 μl of cleared lysate (or control buffer) was incubated with anti-HF antibody in MAZ1356 bound wells, and captured antibody detected and quantitated as described above. HF concentration was then determined by fitting colorimetry results with cell samples to a standard curve of HF concentration. […]

luciferase = assay: Standard luciferase assay; format: biochemical; conditions: not shown
TGFβ signaling = conditions: literature reports; cited from earlier work
[2] = system: GCN2 phosphorylation / AAR pathway; assay: AAR pathway activation in MEFs (GCN2, eIF2a phosphorylation, CHOP); format: cell-based, mouse
Experimental: FIG. 24. Activation of the AAR in cells by HF/FF occurs through inhibition of proline utilization. FIG. 24A is a gel showing HF-induction of the AAR pathway is reversed by proline. MEFs were treated with the indicated concentration of HF or FF in the presence or absence of 2 mM Proline for 2 hours (left) or treated with 1 μM borrelidin in the presence or absence of 2 mM Threonine for 2 hours (right). Cells were lysed and assessed by anti-pGCN2 or anti-GCN2 Western blot. Data are representative of three separate experiments.
FIG. 24B is a gel showing HF induction of eIF2a phosphorylation and CHOP expression is GCN2 dependent. Wild Type or GCN2−/− MEFs were treated with 50 nM HF in the presence or absence of 2 mM proline. Cells were lysed at 2 hours post-HF addition (peIF2a) or 6 hours post-HF addition (CHOP) and analyzed for phosphoprotein or total protein levels by Western blot.

[3] = system: murine CD4+ CD25− T cells, CD8+ T cells, B cells; conditions: high concentrations; PCT/US08/09774; cited from earlier work
[4] = system: translation in rabbit reticulocyte lysate; assay: In vitro translation in rabbit reticulocyte lysate (RRL); format: biochemical; conditions: for rescue of translation inhibition by added amino acids: excess amino acids (1-2 mM)
Experimental: FIG. 23. HF and FF inhibit prolyl tRNA synthetase activity in vitro. […] Rabbit reticulocyte lysate (RRL) was incubated with luciferase mRNA and translation quantitated in a luminescence assay. A high concentration of mixed or individual amino acids (1 mM of each) was added to rescue translational inhibition. AA Mix 1: Asn, Arg, Val, Glu, Gly; AA Mix2: Lys, Ile, Tyr, Asp, Trp; Mix 3: His, Met, Leu, Ala, Thr; Mix 4: Ser, Phe, Pro, Gln. […] Note log scale of y axis.
Inhibitors (FIG. 22) and proline were assayed as described in FIG. 23A. Note log scale at Y axis. Error bars reflect standard deviation of triplicate determinations.
Short myc-tagged polypeptides of identical sequence (see Example 9, “Materials and Methods”) with the exception that NoPro lacks proline, while ProPro contains a proline dipeptide, were translated in RRL in the presence of indicated inhibitors. Translation was examined by anti-myc Western blot.
Note log scale of Y axis.
Translation in vitro was performed using rabbit reticulocyte lysates and luciferase mRNA as template. Translation was measured as arbitrary units of luciferase activity using a luminometer based luminescence assay. Log scale presentation of background-subtracted data is shown.

mTOR pathway = mTOR pathway signaling in fibroblasts; format: cell-based, mouse; conditions: 100 nM HF
Experimental: FIG. 25. […] MEFs growing in DME/10% FCS were treated with 100 nM HF or 0.5 μM Rapamycin and analyzed by Western blot for phosphorylation of component of the mTor signaling pathway. Lane 1: 100 nM MAZ1310 1 hr; Lane 2: 100 nM HF 8 hr; Lane 3: 100 nM HF 4 hr; Lane 4: 100 nM HF 2 hr; Lane 5: 100 nM HF 1 hr; Lane 6: 0.5 μM Rapamycin 1 hr.

O=C(CC1NCCCC1O)Cn1cnc2cc(Br)c(Cl)cc2c1=O (racemic) [HF, halofuginone]
eIF2α phosphorylation in cultured fibroblasts (SV-MES mesangial cells; 20 nM HF): increased eIF2α phosphorylation | GCN2 Thr898 phosphorylation (SV-MES mesangial cells; 20 nM): activation of GCN2 phosphorylation | absolute HF concentration inside cells [1]: ~800 nM | direct effect on luciferase activity (luciferase): no direct effect | concentration at which HF can attenuate TGFβ signaling (TGFβ signaling): > 50 nM | eIF2-alpha phosphorylation and CHOP induction in wild type vs GCN2−/− fibroblasts ([2]; 50 nM HF): absent in GCN2−/− fibroblasts | reversal of GCN2 phosphorylation by cognate amino acid ([2]; 2 mM proline or 2 mM threonine): abrogated by the addition of 2 mM proline | GCN2 phosphorylation in fibroblasts ([2]; 2 hours, borrelidin 1 μM): Stimulation of GCN2 phosphorylation | concentrations generally inhibiting CD4+ T cell, CD8+ T cell, and B220+ B cell activation [3]: 20 to 40 nM | translation of NoPro polypeptide [4]: had no effect on the translation of NoPro | translation of ProPro polypeptide [4]: prevented translation of ProPro | rescue of translation inhibition by added purified EPRS ([4]; 80 ng or 0.5 μg EPRS): rescued HF/FF-inhibition of protein translation | translation of luciferase mRNA ([4]; 400 nM halofuginone): inhibition of translation | eIF2-alpha phosphorylation in RRL ([4]; data not shown): no increase | rescue of translation inhibition by added amino acids [4]: only proline could restore translation | rescue of translation inhibition by added amino acids ([4]; listed as halofuginone): rescues inhibition of translation by halofuginone | translation of luciferase RNA in RRL ([4]; standard amino acid mix): inhibited the translation of luciferase RNA | signaling downstream of mTOR (mTOR pathway): does not directly inhibit downstream targets of the mTOR pathway; also recorded: did not inhibit signaling downstream of mTOR; also recorded: without concomitant inhibition of mTOR signaling

From patent publication US20120058133A1, “INHIBITION OF TRNA SYNTHETASES AND THERAPEUTIC APPLICATIONS THEREOF” (President and Fellows of Harvard College, priority 2009, published 2012)
